Measured values from patent US11180462B2, “Microbiocidal oxadiazole derivatives” (SYNGENTA PARTICIPATIONS AG, priority 2015, dated 2021).

What was measured:
[1] = test system: Puccinia recondita f. Sp. Tritici; test: Fungicidal activity against Puccinia recondita f. sp. tritici / wheat / leaf disc preventative (brown rust); type: in vivo; details: foliar, 200 ppm in the applied formulation, wheat leaf segments, preventative, compared to untreated control leaf disks, read-out: disease control
Method in brief: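 Compound application precedes infection: segments of wheat cv. Kanzler, sprayed at 200 ppm, are inoculated with a spore suspension after 1 day. Incubation is at 19° C. with 75% relative humidity and 12 h light/12 h darkness, and control versus untreated leaves is rated 7 to 9 days post-application.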

[2] = test system: Puccinia recondita f. Sp. Tritici; test: Fungicidal activity against Puccinia recondita f. sp. tritici / wheat / leaf disc curative (brown rust); type: in vivo; details: foliar, 24 h, 200 ppm in the applied formulation, wheat leaf segments, curative (applied 1 day after inoculation), compared to untreated control leaf disks, read-out: disease control
Method in brief: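 Inoculate cv. Kanzler segments on agar; hold dark, 19° C, 75% RH. Spray diluted formulated compound at day 1. Incubate 12 h light/12 h dark, same temperature and humidity; score % control vs untreated 6–8 days later.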

[3] = test system: Glomerella lagenarium (Colletotrichum lagenarium); test: Fungicidal activity against Glomerella lagenarium (Colletotrichum lagenarium) liquid culture / cucumber / preventative (anthracnose); type: cell-based; details: Colletotrichum orbiculare; 20 ppm in the applied formulation; liquid culture (PDB), growth inhibition measured photometrically after 3 to 4 days; compared to untreated control; read-out: disease control
Method in brief: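 Photometric read-out of fungal growth after 2–7 days, expressed as percent antifungal activity versus untreated check. Cryo-stored conidia in PDB; compound at 20 ppm; dark, 24 °C, 96% RH.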

COCCN(C)C(=O)N(Cc1ccc(-c2noc(C(F)(F)F)n2)cc1)OC [Compound 3.63, 1-methoxy-3-(2-methoxyethyl)-3-methyl-1-[[4-[5-(trifluoromethyl)-1,2,4-oxadiazol-3-yl]phenyl]methyl]urea]
≥ 80%: pest or weed control at 200 ppm [1] | pest or weed control at 200 ppm [2] | inhibition of growth at 20 ppm [3]

CCN(CC)C(=O)N(Cc1ccc(-c2noc(C(F)(F)F)n2)cc1)OC [Compound 3.64, 1,1-diethyl-3-methoxy-3-[[4-[5-(trifluoromethyl)-1,2,4-oxadiazol-3-yl]phenyl]methyl]urea]
≥ 80%: pest or weed control at 200 ppm [1] | pest or weed control at 200 ppm [2] | inhibition of growth at 20 ppm [3]

CON(Cc1ccc(-c2noc(C(F)(F)F)n2)cc1)C(=O)N(C)C1CCC1 [Compound 3.65, 1-cyclobutyl-3-methoxy-1-methyl-3-[[4-[5-(trifluoromethyl)-1,2,4-oxadiazol-3-yl]phenyl]methyl]urea]
≥ 80%: pest or weed control at 200 ppm [1] | pest or weed control at 200 ppm [2] | inhibition of growth at 20 ppm [3]

COCCN(C)C(=O)N(C)Cc1ccc(-c2noc(C(F)(F)F)n2)cc1 [Compound 3.67, 1-(2-methoxyethyl)-1,3-dimethyl-3-[[4-[5-(trifluoromethyl)-1,2,4-oxadiazol-3-yl]phenyl]methyl]urea]
≥ 80%: pest or weed control at 200 ppm [1] | pest or weed control at 200 ppm [2] | inhibition of growth at 20 ppm [3]

CN(Cc1ccc(-c2noc(C(F)(F)F)n2)cc1)C(=O)N1CCCO1 [Compound 3.69, N-methyl-N-[[4-[5-(trifluoromethyl)-1,2,4-oxadiazol-3-yl]phenyl]methyl]-isoxazolidine-2-carboxamide]
≥ 80%: pest or weed control at 200 ppm [1] | pest or weed control at 200 ppm [2] | inhibition of growth at 20 ppm [3]

CN(CC#N)C(=O)N(C)Cc1ccc(-c2noc(C(F)(F)F)n2)cc1 [Compound 3.70, 1-(cyanomethyl)-1,3-dimethyl-3-[[4-[5-(trifluoromethyl)-1,2,4-oxadiazol-3-yl]phenyl]methyl]urea]
≥ 80%: pest or weed control at 200 ppm [1] | pest or weed control at 200 ppm [2] | inhibition of growth at 20 ppm [3]

CCN(C(=O)N(C)Cc1ccc(-c2noc(C(F)(F)F)n2)cc1)C1CC1 [Compound 3.71, 1-cyclopropyl-1-ethyl-3-methyl-3-[[4-[5-(trifluoromethyl)-1,2,4-oxadiazol-3-yl]phenyl]methyl]urea]
≥ 80%: pest or weed control at 200 ppm [1] | pest or weed control at 200 ppm [2] | inhibition of growth at 20 ppm [3]

CN(Cc1ccc(-c2noc(C(F)(F)F)n2)cc1)C(=O)N(C)C1CC1 [Compound 3.72, 1-cyclopropyl-1,3-dimethyl-3-[[4-[5-(trifluoromethyl)-1,2,4-oxadiazol-3-yl]phenyl]methyl]urea]
≥ 80%: pest or weed control at 200 ppm [1] | pest or weed control at 200 ppm [2] | inhibition of growth at 20 ppm [3]

CCOC(=O)CN(C)C(=O)N(C)Cc1ccc(-c2noc(C(F)(F)F)n2)cc1 [Compound 3.73, ethyl 2-[methyl-[methyl-[[4-[5-(trifluoromethyl)-1,2,4-oxadiazol-3-yl]phenyl]methyl]-carbamoyl- ]amino]acetate]
≥ 80%: pest or weed control at 200 ppm [1] | pest or weed control at 200 ppm [2] | inhibition of growth at 20 ppm [3]

CN(Cc1ccc(-c2noc(C(F)(F)F)n2)cc1)C(=O)N1CCCC1 [Compound 3.74, N-methyl-N-[[4-[5-(trifluoromethyl)-1,2,4-oxadiazol-3-yl]phenyl]methyl]-pyrrolidine-1-carboxamide]
≥ 80%: pest or weed control at 200 ppm [1] | pest or weed control at 200 ppm [2] | inhibition of growth at 20 ppm [3]

CCCN(C)C(=O)N(C)Cc1ccc(-c2noc(C(F)(F)F)n2)cc1 [Compound 3.75, 1,3-dimethyl-1-propyl-3-[[4-[5-(trifluoromethyl)-1,2,4-oxadiazol-3-yl]phenyl]methyl]urea]
≥ 80%: pest or weed control at 200 ppm [1] | pest or weed control at 200 ppm [2] | inhibition of growth at 20 ppm [3]
